# Data from patent publication US5541183A, “Ginkgolide derivatives” (priority 1993, dated 1996).
# Like-named read-outs stand apart in the source and are kept apart here.
# Tests used:
# [1] = tested on: PAF-induced rabbit platelet aggregation; assay: PAF-induced rabbit platelet aggregation; assay type: cell-based, rabbit (New Zealand white); details: Oryctolagus cuniculus, read-out: IC50, inhibition of PAF-induced rabbit platelet aggregation
# Description: Pharmacology Example 1: PAF-induced rabbit platelet aggregation
# Blood was collected from the ear artery of a male New Zealand white rabbit and mixed with 3.8% sodium citrate in a 9:1 volume ratio. Platelet rich plasma (PRP) was obtained by centrifugation of the blood at 150 g for 10 min at room temperature. The number of platelets was adjusted to 3×10^8 platelets/ml with platelet poor plasma. Platelet aggregation was monitored by continuous recording of light transmission in a dual-channel aggregometer (Chrono-Log 560-VS) coupled with a two channel recorder (Chrono-Log 707). Stirred PRP was treated with various concentrations of the test compounds or vehicle (0.5% DMSO) for 2 min and then PAF(5×10^-9 M) was added to induce platelet aggregation.
# Inhibition values were calculated by comparing the extent of aggregation obtained in the presence of the vehicle alone (0.5% DMSO) and in the presence of a test compound. Log concentration-response curves were generated and the IC50 values were determined by regression analysis.
# Table 1 lists results from this assay for inhibition of PAF-induced rabbit platelet aggregation for illustrative examples of the compounds of this invention.
# [2] = tested on: Ag-induced bronchoconstriction; assay: Ag-induced bronchoconstriction in the guinea pig; assay type: in vivo, guinea pig (Hartley strain); details: for ED50: Cavia porcellus, iv, 10 min, read-out: ID50, Ag-induced bronchoconstriction
# Description: Pharmacology Example 3: Ag-induced bronchoconstriction
# All experiments utilized male guinea pigs (Hartley strain), weighing 350 to 500 g. The animal was passively sensitized with rabbit anti-chicken egg albumin (1.3 mg/kg), 17-24 hrs before ovaibumin challenge. Passively sensitized animals were anesthetized with ethyl carbamate 1.5 g/kg, i.p.). An intratracheal cannula was inserted into trachea and indwelling catheters were inserted into the right carotid artery and left jugular vein. The animals were ventilated with a small animal respirator (UGO BASILE 7025, 70 breaths/min, 1 ml/stroke/100 g). To monitor dead or not, mean arterial pressure was measured continuously with a pressure transducer (Physiological Pressure Transducer, MICRON INSTRUMENT MP-15) connected to an amplifier (COULBOURN INSTRUMENT 572-25) and recorder (COULBOURN INSTRUMENT R14-18). The rate of bronchoconstriction was measured as an increase in lung overflow with a bronchospasm transducer (UGO BASILE 7020) from a side arm off the tracheal cannula, and expressed as a percentage of maximum broncoconstriction obtained by clamping off the tracheal cannular. Test compounds or vehicle (0.5% DMSO) were administered through the cannula into the jugular vein and ovalbumin (1.0 mg/kg, i.v.) was administered 10 minutes later. Bronchoconstriction response was compared to that obtained with control group treated with vehicle. Percent inhibition was calculated for each dose. If necessary, log dose-response curves were generated and the ID50 values were determined by regression analysis.
# PAF induced Lethality = PAF induced Lethality in Mice; assay type: in vivo; details: 10 mg/kg intraperitoneally, 2 minutes before PAF 10 μg/kg I.V.; alive after 2 hours; control 0
# Description: Pharmacology Example 5: PAF induced Lethality in Mice
# PAF given I.V. (10 μg/kg) to mice causes an immediate hypotensive shock leading to death in 1 hour or less. Compounds were given intraperitoneally (dose of compounds : 10 mg/kg) at 2 minutes before the PAF challenge. Animals alive after 2 hours were counted and the activity of test compounds expressed as % survival corrected for any control (saline treated) animals which survived the PAF challenge.
# [3] = tested on: PAF-induced bronchoconstriction; assay: PAF-induced bronchoconstriction in the guinea pig; assay type: in vivo, guinea pig (Hartley strain); details: for ED50: Cavia porcellus, iv, read-out: ID50, PAF-induced bronchoconstriction
# Description: Pharmacology Example 2: PAF-induced bronchoconstriction
# All experiments utilized male guinea pigs (Hartley strain), weighing 350 to 450 g, that were anesthetized with ethyl carbamate (1.5 g/kg, i.p.). An intratracheal cannula was inserted into trachea and indwelling catheters were inserted into the right carotid artery and left jugular vein. The animals were ventilated with a small animal respirator (UGO BASILE 7025, 70 breaths/min, 1 ml/stroke/100 g). To monitor dead or not, mean arterial pressure was measured continuously with a pressure transducer (Physiological Pressure Transducer, MICRON INSTRUMENT MP-15) connected to an amplifier (COULBOURN INSTRUMENT 572-25) and recorder (COULBOURN INSTRUMENT R14-18). The rate of bronchoconstriction was measured as an increase in lung overflow with a bronchospasm transducer (UGO BASILE 7020) from a side arm off the tracheal cannula, and expressed as a percentage of maximum bronchoconstriction obtained by clamping off the tracheal cannula. Test compounds or vehicle (0.5% DMSO) were administered through the cannula into the jugular vein and PAF (100 ng/kg, i.v.) was administered. Bronchoconstriction response was compared to that obtained with control group treated with vehicle. Percent inhibition was calculated for each dose. Log dose-response curves were generated and the ID50 values were determined by regression analysis, and the results are presented in Table 2.
# Table 2: Results for inhibition of PAF-induced bronchoconstriction in the guinea pig.
# bronchial eosinophilia = assay: aeroallergen-induced bronchial infiltration of eosinophils in the bronchoalveolar lavage fluid; assay type: in vivo, guinea pig (Hartley strain); details: 30 mg/kg p.o., + 4h after aeroallergen challenge; for % Inhibition of bronchial eosinophilia: at 24 hours; for Eosinophils in BALF (Mean ± SEM): counted at 24 hours, vehicle 927 ± 131
# Description: Pharmacology Example 4: The aeroallergen-induced bronchial infiltration of eosinophils in the bronchoalveolar lavage fluid.
# Adult, male Hartley-strain guinea pigs weighing 492-735 g were sensitized by intraperitoneal injection of 10 μg ovalbumin (OA) mixed in 100-mg aluminum hydroxide. And guinea pigs were pretreated with pyrilamine (1.0 mg/kg) intraperitoneally 30 min. before aeroallergen challenge. Individual guinea pigs were placed in a two-liter glass chamber and exposed to a five aerosol of OA solution (0.5 mg/ml in saline containing 0.02% antifoal emulsion for a period of 10 min.).
# 4 hours after aero allergen challenge, the guinea pigs received either vehicle or compounds suspended in 1% acacia by oral garage.
# 24 hours after aero allergen challenge, the animals were euthanized with an i.p. overdose of pentobarbital sodium (100 mg/kg). The abdominal cavity was opened, and the animal was exsaguinated by cutting the abdominal aorta. A midline incision was made through the rib cage, exposing the heart and lungs.
# The trachea was cannulated with an 18-gauge stainless steel feeding tube; 20 ml/kg of prewarmed (37° C.) physiological saline was instilled and the BALF was gently withdrawn.
# BALF (amounting to 60-80% of the saline infused) was transferred to a 10 ml vacutainer containing 0.10 ml of 15% EDTA solution and centrifugated at 2400 rpm for 10 min.
# The supernatant was poured off, and the cell pellet was suspended in physiological saline equal to the ratio of BALF recovered (ml) and physiological saline instilled in the lungs (ml), multiplied by two.
# The eosinophils in BALF were counted by Unopette Test 5877.
# The mean numbers of eosinophils±SEM in the BALF of compound-treated animals and corresponding control "vehicle"-treated animals were compared by Student's t-test. A P value of 0.05 or less was considered significant. Table 4 lists results from this assay for inhibition of bronchial eosinophilia for illustrative examples of this invention.
# [4] = 0.1 mg/kg, jugular vein, ovalbumin 1.0 mg/kg i.v. 10 minutes later
# [5] = 0.5 mg/kg, jugular vein, ovalbumin 1.0 mg/kg i.v. 10 minutes later
# [6] = 1.0 mg/kg, jugular vein, ovalbumin 1.0 mg/kg i.v. 10 minutes later
# [7] = jugular vein, ovalbumin 1.0 mg/kg i.v. 10 minutes later
SMILES,IC50 [1] [nM],"% inhibition of Ag-induced bronchoconstriction [2, 4] [%]","% inhibition of Ag-induced bronchoconstriction [2, 5] [%]","% inhibition of Ag-induced bronchoconstriction [2, 6] [%]",ED50 [2] [mg/kg],"IC50 ([1]; rabbit PRP, PAF 5×10^-9 M) [nM]","ED50 [2, 7] [mg/kg]",Survival rate (%) (PAF induced Lethality),"% inhibition of PAF-induced bronchoconstriction ([3]; 0.01 mg/kg, jugular vein, PAF 100 ng/kg i.v.) [%]","% inhibition of PAF-induced bronchoconstriction ([3]; 0.02 mg/kg, jugular vein, PAF 100 ng/kg i.v.) [%]","% inhibition of PAF-induced bronchoconstriction ([3]; 0.04 mg/kg, jugular vein, PAF 100 ng/kg i.v.) [%]","ED50 ([3]; jugular vein, PAF 100 ng/kg i.v.) [mg/kg]",% Inhibition of bronchial eosinophilia (bronchial eosinophilia) [%],Eosinophils in BALF (Mean ± SEM) (bronchial eosinophilia),"% inhibition of PAF-induced bronchoconstriction ([3]; 0.50 mg/kg, jugular vein, PAF 100 ng/kg i.v.) [%]","% inhibition of PAF-induced bronchoconstriction ([3]; 1.00 mg/kg, jugular vein, PAF 100 ng/kg i.v.) [%]","% inhibition of PAF-induced bronchoconstriction ([3]; 2.00 mg/kg, jugular vein, PAF 100 ng/kg i.v.) [%]",ED50 [3] [mg/kg]
"CC1C(=O)OC2C(O)C34C5CC(C(C)(C)C)C36C(OC(=O)C6OCc3ccccn3)OC4(C(=O)O5)C12O (stereo not shown) [Example 99, 10-(2-pyridinyl)-methoxy-Ginkgolide B]",30.7,42,73,100,0.31,–,–,–,–,–,–,–,–,–,–,–,–,–
"CC1C(=O)OC2C(O)C34C5CC(C(C)(C)C)C36C(OC(=O)C6OCc3ccc(O)cn3)OC4(C(=O)O5)C12O (stereo not shown) [Example 115, 10-(2-(5-hydroxypyridinyl)-methoxy)-Ginkgolide B]",–,65,100,100,–,152,0.08,100,–,–,–,–,–,–,–,–,–,–
"COc1c(C)cnc(COC2C(=O)OC3OC45C(=O)OC6CC(C(C)(C)C)C32C64C(O)C2OC(=O)C(C)C25O)c1C (stereo not shown) [Example 97, 10-(4-methoxy-3,5-dimethyl-2-pyridinyl) -methoxy-Ginkgolide B]",–,30,68,100,–,38.9,0.42,–,–,–,–,–,–,–,–,–,–,–
"Cc1cnc(COC2C(=O)OC3OC45C(=O)OC6CC(C(C)(C)C)C32C64C(O)C2OC(=O)C(C)C25O)c(C)c1 (stereo not shown) [Example 96, 10-(3,5-dimethyl-2-pyridinyl) -methoxy-Ginkgolide]",–,50,97,100,–,24.5,0.1,100,17,26,96,0.023,31,641 ± 134 10^3 cells/m1 BALF,–,–,–,–
"CC1C(=O)OC2C(O)C34C5CC(C(C)(C)C)C36C(OC(=O)C6OCc3ccc6c(c3)OCO6)OC4(C(=O)O5)C12O (stereo not shown) [Example 82, 10-piperonyloxy-Ginkgolide B]",50.7,60,94,100,0.09,–,–,100,–,–,–,–,34,616 ± 145 10^3 cells/m1 BALF,–,–,–,–
"Cc1cnc(COC2C(=O)OC3OC45C(=O)OC6CC(C(C)(C)C)C32C64C(O)C2OC(=O)C(C)C25O)c(C)c1N (stereo not shown) [Example 103, 10-(3,5-dimethyl-4-amino-2-pyridinyl)-methoxy-Ginkgolide B]",–,10,62,97,–,87.7,0.48,–,–,–,–,–,–,–,–,–,–,–
"CC1C(=O)OC2C(O)C34C5CC(C(C)(C)C)C36C(OC(=O)C6O)OC4(C(=O)O5)C12O (stereo not shown) [Ginkgolide B, reference compound]",–,10,42,82,–,258,0.83,–,–,–,–,–,0,1148 ± 305 10^3 cells/m1 BALF,38,64,100,0.6
